Source: US20150105252A1, “SUBSTITUTED PYRAZOLES AS HERBICIDES” (E I DU PONT DE NEMOURS AND COMPANY, priority 2013, published 2015)

What was measured:
barnyardgrass = experiment: Test A preemergence; type: in vivo, Echinochloa crus-galli; settings: preemergence
Procedure, shortened: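 Injury readout: eye-scored versus untreated controls, 0 to 100. Exposure period: ~10 days, greenhouse. Application: soil-directed spray over sown seed (pre) or spray on seedlings 2–10 cm tall with one or two leaves (post), compound carried in non-phytotoxic solvent including surfactant.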

rice = experiment: Test B flood; type: in vivo, Oryza sativa; settings: 250 g ai/ha, visual rating on 0 to 100 scale (0 no effect, 100 complete control), 13 to 15 days
Procedure, shortened: (§1)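 Plants were grown to the 2-leaf stage and pots flooded to 3 cm above soil. Compounds were applied directly into the paddy water, with depth kept for the test. After 13–15 days in greenhouse, response was rated visually against controls on a 0 (no effect) to 100 (complete control) scale.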

ducksalad = experiment: Test B flood; type: in vivo, Heteranthera limosa; settings: 250 g ai/ha, visual rating on 0 to 100 scale (0 no effect, 100 complete control), 13 to 15 days
Procedure, shortened: as §1

lambsquarters = experiment: Test C preemergence; type: in vivo, Chenopodium album; settings: preemergence; for Plant response rating, Lambsquarters: 125 g ai/ha, scale 0 to 100, 0 = no effect, 100 = complete control
Procedure, shortened: (§2)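 Herbicidal effect is expressed as percent visual control (0–100) judged against untreated plants 13 to 15 days after treatment in the greenhouse. Preemergence pots contained seeds in a soil–sand blend; postemergence plants, 2–18 cm tall, grew in peat-based planting medium.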

morningglory = experiment: Test C preemergence; type: in vivo, Ipomoea coccinea; settings: preemergence; for Plant response rating, Morningglory: 125 g ai/ha, scale 0 to 100, 0 = no effect, 100 = complete control
Procedure, shortened: as §2

nutsedge, yellow [1] = experiment: Test C preemergence; type: in vivo, Cyperus esculentus; settings: preemergence; for Plant response rating, Nutsedge, Yellow: 125 g ai/ha, scale 0 to 100, 0 = no effect, 100 = complete control
Procedure, shortened: as §2

waterhemp = experiment: Test C preemergence; type: in vivo, Amaranthus rudis; settings: preemergence; for Plant response rating, Waterhemp: 125 g ai/ha, scale 0 to 100, 0 = no effect, 100 = complete control
Procedure, shortened: as §2

velvetleaf = experiment: Test C preemergence; type: in vivo, Abutilon theophrasti; settings: preemergence; for Plant response rating, Velvetleaf: 125 g ai/ha, scale 0 to 100, 0 = no effect, 100 = complete control
Procedure, shortened: as §2

johnsongrass = experiment: Test C postemergence; type: in vivo, Sorghum halepense; settings: for Plant response rating (scale of 0 to 100 where 0 is no effect and 100 is complete control), Johnsongrass: Postemergence, 31 g ai/ha, visually evaluated after 13 to 15 days; for Johnsongrass plant response rating / Plant response rating, Johnsongrass: postemergence; for Johnsongrass plant response rating: 62 g ai/ha, scale 0 to 100
Procedure, shortened: as §2

nutsedge, yellow [2] = experiment: Test C postemergence; type: in vivo, Cyperus esculentus; settings: for Plant response rating (scale of 0 to 100 where 0 is no effect and 100 is complete control), Nutsedge, Yellow: Postemergence, 31 g ai/ha, visually evaluated after 13 to 15 days; for Nutsedge, Yellow plant response rating / Plant response rating, Nutsedge, Yellow: postemergence; for Nutsedge, Yellow plant response rating: 62 g ai/ha, scale 0 to 100
Procedure, shortened: as §2

soybean = experiment: Test C postemergence; type: in vivo, Glycine max; settings: for Soybean plant response rating / Plant response rating, Soybean: postemergence
Procedure, shortened: as §2

kochia = experiment: Test C postemergence; type: in vivo, Kochia scoparia; settings: for Plant response rating (scale of 0 to 100 where 0 is no effect and 100 is complete control), Kochia: Postemergence, 31 g ai/ha, visually evaluated after 13 to 15 days; for Kochia plant response rating / Plant response rating, Kochia: postemergence; for Kochia plant response rating: 62 g ai/ha, scale 0 to 100
Procedure, shortened: as §2

[3] = 500 g ai/ha, visual injury after approx. 10 days, 0 to 100 scale (0 no effect, 100 complete control)
[4] = 31 g ai/ha, visual rating, scale 0 to 100 (0 no effect, 100 complete control), 13 to 15 days
[5] = 62 g ai/ha, scale 0 to 100 (0 no effect, 100 complete control), 13 to 15 days
[6] = 250 g ai/ha, scale 0 to 100, 0 is no effect, 100 is complete control
[7] = 250 g ai/ha, scale 0 to 100 (0 no effect, 100 complete control)
[8] = 125 g ai/ha, scale 0 to 100, 0 no effect, 100 complete control

CCCNC(=O)c1cc(OCC)n(Cc2ccnc(OC(F)F)c2)n1 [Compound 136]
Barnyardgrass plant response rating (barnyardgrass; 125 g ai/ha, visual injury, 0 to 100 scale, approx. 10 days): 100
Barnyardgrass plant response rating (barnyardgrass; [3]): 100
Plant response rating, Rice (rice): 35
Plant response rating, Ducksalad (ducksalad): 80
Lambsquarters plant response rating (lambsquarters; [4]): 98
Lambsquarters plant response rating (lambsquarters; [5]): 98
Plant response rating, Lambsquarters (lambsquarters; 13 to 15 days): 98
Lambsquarters plant response rating (lambsquarters; [6]): 100
Morningglory plant response rating (morningglory; [4]): 100
Morningglory plant response rating (morningglory; [5]): 100
Plant response rating, Morningglory (morningglory; 13 to 15 days): 100
Morningglory plant response rating (morningglory; [6]): 100
Nutsedge, Yellow plant response rating (nutsedge, yellow [1]; [4]): 30
Nutsedge, Yellow plant response rating (nutsedge, yellow [1]; [5]): 35
Plant response rating, Nutsedge, Yellow (nutsedge, yellow [1]; 13 to 15 days): 50
Nutsedge, Yellow plant response rating (nutsedge, yellow [1]; [6]): 85
Waterhemp plant response rating (waterhemp; [4]): 85
Waterhemp plant response rating (waterhemp; [5]): 100
Plant response rating, Waterhemp (waterhemp; 13 to 15 days): 100
Waterhemp plant response rating (waterhemp; [6]): 100
Velvetleaf plant response rating (velvetleaf; [4]): 65
Velvetleaf plant response rating (velvetleaf; [5]): 100
Plant response rating, Velvetleaf (velvetleaf; 13 to 15 days): 100
Velvetleaf plant response rating (velvetleaf; [6]): 100
Plant response rating (scale of 0 to 100 where 0 is no effect and 100 is complete control), Johnsongrass (johnsongrass): 5
Johnsongrass plant response rating (johnsongrass): 5
Plant response rating, Johnsongrass (johnsongrass; [7]): 10
Plant response rating, Johnsongrass (johnsongrass; [8]): 5
Plant response rating (scale of 0 to 100 where 0 is no effect and 100 is complete control), Nutsedge, Yellow (nutsedge, yellow [2]): 5
Nutsedge, Yellow plant response rating (nutsedge, yellow [2]): 5
Plant response rating, Nutsedge, Yellow (nutsedge, yellow [2]; [7]): 5
Plant response rating, Nutsedge, Yellow (nutsedge, yellow [2]; [8]): 5
Plant response rating (scale of 0 to 100 where 0 is no effect and 100 is complete control), Soybean (soybean; Postemergence, 31 g ai/ha, visually evaluated after 13 to 15 days): 90
Soybean plant response rating (soybean; 62 g ai/ha, scale 0 to 100): 70
Plant response rating, Soybean (soybean; [7]): 95
Plant response rating, Soybean (soybean; [8]): 95
Plant response rating (scale of 0 to 100 where 0 is no effect and 100 is complete control), Kochia (kochia): 90
Kochia plant response rating (kochia): 90
Plant response rating, Kochia (kochia; [7]): 90
Plant response rating, Kochia (kochia; [8]): 90

CCCc1cc(C(=O)NC2CC2)nn1Cc1ccnc(OC(F)F)c1 [Compound 205]
Barnyardgrass plant response rating (0 to 100 scale, 0 is no effect, 100 is complete control) (barnyardgrass; 125 g ai/ha, visual injury approx. 10 days after treatment): 90
Barnyardgrass plant response rating (barnyardgrass; [3]): 100
Plant response rating, Rice (rice): 0
Plant response rating, Ducksalad (ducksalad): 100
Lambsquarters plant response rating (lambsquarters; [4]): 85
Lambsquarters plant response rating (lambsquarters; [5]): 95
Plant response rating, Lambsquarters (lambsquarters; 13 to 15 days): 100
Lambsquarters plant response rating (lambsquarters; [6]): 100
Morningglory plant response rating (morningglory; [4]): 100
Morningglory plant response rating (morningglory; [5]): 100
Plant response rating, Morningglory (morningglory; 13 to 15 days): 100
Morningglory plant response rating (morningglory; [6]): 100
Nutsedge, Yellow plant response rating (nutsedge, yellow [1]; [4]): 40
Nutsedge, Yellow plant response rating (nutsedge, yellow [1]; [5]): 65
Plant response rating, Nutsedge, Yellow (nutsedge, yellow [1]; 13 to 15 days): 75
Nutsedge, Yellow plant response rating (nutsedge, yellow [1]; [6]): 90
Waterhemp plant response rating (waterhemp; [4]): 100
Waterhemp plant response rating (waterhemp; [5]): 100
Plant response rating, Waterhemp (waterhemp; 13 to 15 days): 100
Waterhemp plant response rating (waterhemp; [6]): 100
Velvetleaf plant response rating (velvetleaf; [4]): 55
Velvetleaf plant response rating (velvetleaf; [5]): 100
Plant response rating, Velvetleaf (velvetleaf; 13 to 15 days): 100
Velvetleaf plant response rating (velvetleaf; [6]): 100
Plant response rating (scale of 0 to 100 where 0 is no effect and 100 is complete control), Johnsongrass (johnsongrass): 5
Johnsongrass plant response rating (johnsongrass): 10
Plant response rating, Johnsongrass (johnsongrass; [7]): 45
Plant response rating, Johnsongrass (johnsongrass; [8]): 20
Plant response rating (scale of 0 to 100 where 0 is no effect and 100 is complete control), Nutsedge, Yellow (nutsedge, yellow [2]): 5
Nutsedge, Yellow plant response rating (nutsedge, yellow [2]): 5
Plant response rating, Nutsedge, Yellow (nutsedge, yellow [2]; [7]): 15
Plant response rating, Nutsedge, Yellow (nutsedge, yellow [2]; [8]): 15
Plant response rating, Soybean (soybean; [7]): 90
Soybean plant response rating (soybean; [8]): 70
Plant response rating (scale of 0 to 100 where 0 is no effect and 100 is complete control), Kochia (kochia): 85
Kochia plant response rating (kochia): 90
Plant response rating, Kochia (kochia; [7]): 95
Plant response rating, Kochia (kochia; [8]): 95
